Biological target: almond β-glucosidase
Experiment: glycosidase inhibition assay with p-nitrophenyl substrate, commercial (Sigma) enzyme
Format: biochemical, Prunus dulcis

IC50: 1000 µM
Compound: NC1=NC[C@@H](CCNC(=O)c2cc3c(cn2)[nH]c2ccccc23)N1 [compound 1, (+)-(R)-Tiruchanduramine]
